Experiment: Addition of 1,2-phenylenediamine to wort (chromatogram)
Conditions: wort + 1,2-phenylenediamine versus wort; FIG. 5
Procedure: FIG. 5. […] A: wort. B: wort+1,2-phenylenediamine.
A fixed volume (2.2 ml) of 5% 1,2-phenylenediamine (OPD) in methanol was added to a bottle of beer (222 ml) that was then recapped and kept at 20° C. for 12 hours. After 12 hours of reaction, 25 ml of sample were extracted with chloroform (3×8 ml). The chloroform organic phase was removed by centrifugation at 3000 rpm for 10 min, collected, washed with 0.1 M HCl (3×8 ml) in order to remove the unreacted 1,2-phenylenediamine, and semi-dried with magnesium sulfate. The semi-dried organic phase, which contained the hydrophobic quinoxaline derivatives, was then rotavapped to dryness, and the residue resuspended in 250 μl of acetonitrile, and diluted 1/10 (50% solvent A and 50% solvent B) before chromatographic analysis. Hydrophobic quinoxalines were analyzed using Method I (see below). The aqueous phase, containing hydrophilic quinoxalines, was injected directly and analyzed using Method II (see below).
Chromatographic conditions were as follows: a Nova-Pak C18 (Waters) column 3.9×150 mm, 4 μm was used. The mobile phase was: solvent A—95% water (Milli-Q) and 5% acetonitrile; solvent B—90% acetonitrile and 10% water; flow rate 0.7 ml/min. Elution was monitored with a Waters 991 Photodiode Array Detector (200 nm-360 nm).

**Q.** For `Nc1ccccc1N` [1,2-phenylenediamine], which “change in the LC18 peak” value is on record?
**A.** specific reduction
